Activity calls are given as the source filed them. Cut-off read from the data, not from the text of the source, for most assays here: actives have a measured EC50 and inactives only a lower limit.

Test [1] in a line: Counterscreen for IDE inhibitors: Luminescence-based cell-based high throughput dose response assay to identify compounds that are cytotoxic to HEK cells. [Related pubchem assays: 434962 (Primary screen (IDE inhibitors in singlicate)), 449730 (Counterscreen (Cytotoxicity in triplicate)), 435028 (Confirmation (IDE inhibitors in triplicate)) …. Type of test: functional. The note with it: HEK293.

The next test concerns the target T1, Insulin-degrading enzyme (Homo sapiens, UniProt P14735).
T1 sequence (P14735 whole entry): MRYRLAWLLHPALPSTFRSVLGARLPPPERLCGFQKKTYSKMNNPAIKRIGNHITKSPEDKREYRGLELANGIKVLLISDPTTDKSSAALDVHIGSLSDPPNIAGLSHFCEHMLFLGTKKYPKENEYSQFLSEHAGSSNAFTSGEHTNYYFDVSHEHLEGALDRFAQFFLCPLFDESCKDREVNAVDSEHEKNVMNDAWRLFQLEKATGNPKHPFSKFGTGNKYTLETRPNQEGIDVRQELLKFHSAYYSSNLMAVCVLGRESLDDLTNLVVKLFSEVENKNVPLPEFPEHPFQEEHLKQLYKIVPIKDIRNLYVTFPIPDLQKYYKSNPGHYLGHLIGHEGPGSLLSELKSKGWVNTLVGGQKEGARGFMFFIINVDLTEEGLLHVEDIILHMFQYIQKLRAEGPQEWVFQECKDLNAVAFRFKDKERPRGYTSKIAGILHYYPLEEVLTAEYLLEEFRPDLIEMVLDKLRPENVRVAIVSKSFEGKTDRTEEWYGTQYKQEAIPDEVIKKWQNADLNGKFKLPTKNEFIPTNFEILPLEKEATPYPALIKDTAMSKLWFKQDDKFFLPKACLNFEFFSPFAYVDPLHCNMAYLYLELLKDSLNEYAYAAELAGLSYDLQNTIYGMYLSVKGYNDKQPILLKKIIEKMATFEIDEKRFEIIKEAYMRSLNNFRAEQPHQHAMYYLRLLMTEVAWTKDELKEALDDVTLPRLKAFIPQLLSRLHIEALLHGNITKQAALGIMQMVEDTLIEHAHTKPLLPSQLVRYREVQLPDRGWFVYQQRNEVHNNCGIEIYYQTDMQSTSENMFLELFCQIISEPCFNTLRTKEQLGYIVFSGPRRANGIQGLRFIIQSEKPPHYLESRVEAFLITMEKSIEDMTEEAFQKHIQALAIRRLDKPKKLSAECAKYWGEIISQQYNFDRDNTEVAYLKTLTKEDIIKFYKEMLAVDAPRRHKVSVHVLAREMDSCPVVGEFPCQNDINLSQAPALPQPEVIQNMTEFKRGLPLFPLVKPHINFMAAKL
In words: Dose Response: Fluorescence polarization-based cell-based high throughput dose response assay for inhibitors of insulin-degrading enzyme (IDE). [Related pubchem assays: 434962 (Primary screen (IDE inhibitors in singlicate)), 449730 (Counterscreen (Cytotoxicity in triplicate)), 435028 (Confirmation (IDE inhibitors in triplicate)), 434984 (Summary …. Type of test: functional. Background: In fluorescence polarisation assays a small probe gives low polarisation when free and higher when bound to something large.

For test [2], the system named is Streptococcus sp. 'group A'. In words: growth inhibition of control SK(-) GAS strain, dose response, counter-screen for streptokinase expression inhibitor project, luminescence, kanamycin, BacTiterGlo, confirmation (AID 1900). Format: functional, organism-based.
Test [3] has as its system Streptococcus. In words: Luminescence Microorganism-Based Dose Response Follow up to Identify Compounds Cytotoxic to Streptococcus. [Related pubchem assays: 1677 (Project Summary), 1915, 1914, 1902 (Retest at Dose), 1900 (Counter Screen), 1662 (Primary HTS)]. Type of test: functional, organism-based.
For a further test, the target named is T2, Streptokinase A (Streptococcus pyogenes serotype M1, UniProt P10520).
T2 sequence (P10520 whole entry): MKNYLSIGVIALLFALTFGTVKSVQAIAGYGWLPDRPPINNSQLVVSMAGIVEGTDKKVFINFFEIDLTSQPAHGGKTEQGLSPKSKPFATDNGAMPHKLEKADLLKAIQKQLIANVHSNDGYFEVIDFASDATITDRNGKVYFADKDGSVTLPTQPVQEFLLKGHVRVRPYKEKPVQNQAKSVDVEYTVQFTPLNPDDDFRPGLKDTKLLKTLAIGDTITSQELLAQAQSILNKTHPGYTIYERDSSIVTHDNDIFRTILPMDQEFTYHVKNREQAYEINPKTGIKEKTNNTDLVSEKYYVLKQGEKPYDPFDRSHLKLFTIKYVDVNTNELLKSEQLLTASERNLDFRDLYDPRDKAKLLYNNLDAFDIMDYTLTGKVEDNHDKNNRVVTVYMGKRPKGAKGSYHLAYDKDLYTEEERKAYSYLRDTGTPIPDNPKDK
In words: S. pyogenes streptokinase expression inhibitors, potency, dose response, plasminogen activation absorbance, OD405 (AID 1914).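 Note: secreted streptokinase activity via plasminogen activation per viability signal from cell pellet.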 Type of test: functional, Streptococcus pyogenes M1 GAS.

In test [4] the test system is Streptococcus. In words: Group A Streptococcus viability loss, dose response, counter-screen for streptokinase expression inhibitor project, luminescence, BacTiterGlo (AID 1915).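 Note: potency for reduction of bacterial viability or growth.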 Type of test: functional, organism-based. On the technique in general: A counterscreen serves to expose hits that act by an unwanted route or on another target.

The term IC50 denotes the midpoint of a concentration-inhibition curve. For the compound `COc1cc(/C=C2\SC(=N)N(c3ccc(F)cc3)C2=O)ccc1O`, the figures for the IC50 (in test [1]; against Insulin-degrading enzyme) were 39.5 µM (not active) and 29.3 µM (not active), respectively.

What is called EC50 is the concentration at which the effect is half-maximal. Regarding `FC(F)(F)c1nc(N2CCN(c3ccccc3)CC2)nc2c1CCCCC2`, the EC50 in test [2] is 2.83 µM (active); in the test on Streptococcus [3], > 500 µM (not active); on Streptokinase A, 5.5 µM (active); with Streptococcus [4] it was > 150 µM (not active).

The record behind these values is ChEMBL document CHEMBL1201862, “PubChem BioAssay data set” (2004).
